Values quoted from earlier work, collected in US20040241049A1, “Elastomeric tools for the fabrication of elastomeric devices and uses thereof” (priority 2003, published 2004).

System: α1-acid glycoprotein, αAGP
Details: displacement of quinaldine red from αAGP; stated as known

Row | inhibition of QR/αAGP binding (binder / non-binder) | Structure (SMILES)
1 | known inhibitors to QR/αAGP binding | CN(C)CCCN1c2ccccc2Sc2ccc(Cl)cc21 [chloropromazine]
2 | non-binder | CC(C)Cc1ccc(C(C)C(=O)O)cc1 (stereo not drawn) [ibuprofen]

Row | Structure (SMILES) | inhibition of QR/αAGP binding (binder / non-binder)
3 | O=C(O)c1cc(I)cc(I)c1I [tri-idiobenzoic acid] | known inhibitors to QR/αAGP binding
